Biological target: T1, Bcl-2 protein (Recombinant Human Bcl-2 Protein) (Homo sapiens, UniProt P10415)
T1 construct: purchased Novus NBP2-34889
Experiment: Binding evaluation of mixture library compounds to Bcl-2 using AS-MS (affinity selection mass spectrometry)
Conditions: for ASMS ratio (%) n = 1 / ASMS ratio (%) n = 2: AS-MS, mixture library, Bcl-2, ASMS Ratio(%)=(A−C)/B×100; for ASMS ratio (%) n = 1: replicate n = 1; for ASMS ratio (%) n = 2: replicate n = 2
Method in brief: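 Pooled library of ~1200 compounds ([…] each, final) incubated with recombinant human Bcl-2 (20 μM final) in Tris-HCl pH 7.4, NaCl, Tween-20, DTT buffer, dark, 23° C., 1 h. Bound fraction recovered by SEC spin column, organic extraction, reversed-phase LC/MS. ASMS Ratio (%) = (A−C)/B×100 versus protein-free standard and SEC blank.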

T1 sequence (P10415 whole entry): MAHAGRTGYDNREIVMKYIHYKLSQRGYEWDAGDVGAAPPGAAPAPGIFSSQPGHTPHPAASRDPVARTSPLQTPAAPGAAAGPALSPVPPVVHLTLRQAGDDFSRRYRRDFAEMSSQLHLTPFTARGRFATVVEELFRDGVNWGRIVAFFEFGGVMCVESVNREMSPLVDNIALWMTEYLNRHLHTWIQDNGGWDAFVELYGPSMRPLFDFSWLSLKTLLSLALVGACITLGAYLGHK

Compound: CCOc1cncc(C#Cc2cncc(C(=O)N3CCN(c4ccc(C(=O)NS(C)(=O)=O)cc4)CC3)c2)c1 [B2I032-01, 4-[4-[5-[2-(5-Ethoxypyridin-3-yl)ethynyl]pyridine-3-carbonyl]piperazin-1-yl]-N-methylsulfonylbenzamide]
- ASMS ratio (%) n = 1: −1.6%
- ASMS ratio (%) n = 2: −1.6%

Compound: CCOc1cccc(-c2ccccc2CCC(=O)N2CCN(c3ccc(C(=O)NS(C)(=O)=O)cc3)CC2)c1 [B2I033-01, 4-[4-[3-[2-(3-Ethoxyphenyl)phenyl]propanoyl]piperazin-1-yl]-N-methylsulfonylbenzamide]
- ASMS ratio (%) n = 1: 0.0%
- ASMS ratio (%) n = 2: 0.0%

Compound: CCOc1cncc(-c2ccccc2CCC(=O)N2CCN(c3ccc(C(=O)NS(C)(=O)=O)cc3)CC2)c1 [B2I034-01, 4-[4-[3-[2-(5-Ethoxypyridin-3-yl)phenyl]propanoyl]piperazin-1-yl]-N-methylsulfonylbenzamide]
- ASMS ratio (%) n = 1: 0.0%
- ASMS ratio (%) n = 2: 1.6%

Compound: CCOc1cccc(-c2ccc(C(=O)N3CCN(c4ccc(C(=O)NS(C)(=O)=O)cc4)CC3)c3ccccc23)c1 [B2I035-01, 4-[4-[4-(3-Ethoxyphenyl)naphthalene-1-carbonyl]piperazin-1-yl]-N-methylsulfonylbenzamide]
- ASMS ratio (%) n = 1: 0.0%
- ASMS ratio (%) n = 2: 1.6%

Compound: CCOc1cncc(-c2ccc(C(=O)N3CCN(c4ccc(C(=O)NS(C)(=O)=O)cc4)CC3)c3ccccc23)c1 [B2I036-01, 4-[4-[4-(5-Ethoxypyridin-3-yl)naphthalene-1-carbonyl]piperazin-1-yl]-N-methylsulfonylbenzamide]
- ASMS ratio (%) n = 1: −0.7%
- ASMS ratio (%) n = 2: 1.5%

Compound: CCOc1cccc(-c2cc(C(=O)N3CCN(c4ccc(C(=O)NS(C)(=O)=O)cc4)CC3)cc(C(C)(C)C)c2)c1 [B2I037-01, 4-[4-[3-tert-Butyl-5-(3-ethoxyphenyl)benzoyl]piperazin-1-yl]-N-methylsulfonylbenzamide]
- ASMS ratio (%) n = 1: 0.0%
- ASMS ratio (%) n = 2: 3.3%

Compound: CCOc1cncc(-c2cc(C(=O)N3CCN(c4ccc(C(=O)NS(C)(=O)=O)cc4)CC3)cc(C(C)(C)C)c2)c1 [B2I038-01, 4-[4-[3-tert-Butyl-5-(5-ethoxypyridin-3-yl)benzoyl]piperazin-1-yl]-N-methylsulfonylbenzamide]
- ASMS ratio (%) n = 1: 0.0%
- ASMS ratio (%) n = 2: 0.0%

Compound: CCOc1cccc(C#Cc2cc(C(=O)N3CCN(c4ccc(C(=O)NS(C)(=O)=O)cc4)CC3)cc(C(F)(F)F)c2)c1 [B2I041-01, 4-[4-[3-[2-(3-Ethoxyphenyl)ethynyl]-5-(trifluoromethyl)benzoyl]piperazin-1-yl]-N-methylsulfonylbenzamide]
- ASMS ratio (%) (n = 1): 0.0%
- ASMS ratio (%) (n = 2): 0.0%

Compound: CCOc1cncc(C#Cc2cc(C(=O)N3CCN(c4ccc(C(=O)NS(C)(=O)=O)cc4)CC3)cc(C(F)(F)F)c2)c1 [B2I042-01, 4-[4-[3-[2-(5-Ethoxypyridin-3-yl)ethynyl]-5-(trifluoromethyl)benzoyl]piperazin-1-yl]-N-methylsulfonylbenzamide]
- ASMS ratio (%) (n = 1): 0.0%
- ASMS ratio (%) (n = 2): 0.0%

Compound: CCOc1cccc(-c2cnn(-c3cc(C(=O)N4CCN(c5ccc(C(=O)NS(C)(=O)=O)cc5)CC4)cc(C(F)(F)F)c3)c2)c1 [B2I043-01, 4-[4-[3-[4-(3-Ethoxyphenyl)pyrazol-1-yl]-5-(trifluoromethyl)benzoyl]piperazin-1-yl]-N-methylsulfonylbenzamide]
- ASMS ratio (%) (n = 1): 0.0%
- ASMS ratio (%) (n = 2): 0.0%

Compound: CCOc1cncc(-c2cnn(-c3cc(C(=O)N4CCN(c5ccc(C(=O)NS(C)(=O)=O)cc5)CC4)cc(C(F)(F)F)c3)c2)c1 [B2I044-01, 4-[4-[3-[4-(5-Ethoxypyridin-3-yl)pyrazol-1-yl]-5-(trifluoromethyl)benzoyl]piperazin-1-yl]-N-methylsulfonylbenzamide]
- ASMS ratio (%) (n = 1): 0.0%
- ASMS ratio (%) (n = 2): 0.0%

Compound: CCOc1cccc(-c2ccccc2CN2CCN(c3ccc(C(=O)NS(C)(=O)=O)cc3)CC2)c1 [B2I045-01, 4-[4-[[2-(3-Ethoxyphenyl)phenyl]methyl]piperazin-1-yl]-N-methylsulfonylbenzamide]
- ASMS ratio (%) (n = 1): −0.3%
- ASMS ratio (%) (n = 2): 0.2%

Compound: CCOc1cncc(-c2ccccc2CN2CCN(c3ccc(C(=O)NS(C)(=O)=O)cc3)CC2)c1 [B2I046-01, 4-[4-[[2-(5-Ethoxypyridin-3-yl)phenyl]methyl]piperazin-1-yl]-N-methylsulfonylbenzamide]
- ASMS ratio (%) (n = 1): −0.6%
- ASMS ratio (%) (n = 2): 1.5%

Compound: CCOc1cccc(-c2ccc(CN3CCN(c4ccc(C(=O)NS(C)(=O)=O)cc4)CC3)cc2C)c1 [B2I047-01]
- ASMS ratio (%) (n = 1): 0.8%
- ASMS ratio (%) (n = 2): 1.4%

Compound: CCOc1cncc(-c2ccc(CN3CCN(c4ccc(C(=O)NS(C)(=O)=O)cc4)CC3)cc2C)c1 [B2I048-01, 4-[4-[[4-(5-Ethoxypyridin-3-yl)-3-methylphenyl]methyl]piperazin-1-yl]-N-methylsulfonylbenzamide]
- ASMS ratio (%) (n = 1): 0.0%
- ASMS ratio (%) (n = 2): 0.0%

Compound: CCOc1cccc(-c2ccc(CN3CCN(c4ccc(C(=O)NS(C)(=O)=O)cc4)CC3)c(CC)c2)c1 [B2I049-01, 4-[4-[[4-(3-Ethoxyphenyl)-2-ethylphenyl]methyl]piperazin-1-yl]-N-methylsulfonylbenzamide]
- ASMS ratio (%) (n = 1): 0.0%
- ASMS ratio (%) (n = 2): 0.0%

Compound: CCOc1cncc(-c2ccc(CN3CCN(c4ccc(C(=O)NS(C)(=O)=O)cc4)CC3)c(CC)c2)c1 [B2I050-01, 4-[4-[[4-(5-Ethoxypyridin-3-yl)-2-ethylphenyl]methyl]piperazin-1-yl]-N-methylsulfonylbenzamide]
- ASMS ratio (%) (n = 1): 0.0%
- ASMS ratio (%) (n = 2): −1.5%

Compound: CCOc1cccc(-c2ccc(CN3CCN(c4ccc(C(=O)NS(C)(=O)=O)cc4)CC3)cc2F)c1 [B2I051-01, 4-[4-[[4-(3-Ethoxyphenyl)-3-fluorophenyl]methyl]piperazin-1-yl]-N-methylsulfonylbenzamide]
- ASMS ratio (%) (n = 1): 0.0%
- ASMS ratio (%) (n = 2): 0.0%

Compound: CCOc1cncc(-c2ccc(CN3CCN(c4ccc(C(=O)NS(C)(=O)=O)cc4)CC3)cc2F)c1 [B2I052-01, 4-[4-[[4-(5-Ethoxypyridin-3-yl)-3-fluorophenyl]methyl]piperazin-1-yl]-N-methylsulfonylbenzamide]
- ASMS ratio (%) (n = 1): 0.0%
- ASMS ratio (%) (n = 2): 0.0%

Compound: CCOc1cccc(-c2ccc(CN3CCN(c4ccc(C(=O)NS(C)(=O)=O)cc4)CC3)c(OC)c2)c1 [B2I053-01]
- ASMS ratio (%) (n = 1): 0.0%
- ASMS ratio (%) (n = 2): 0.0%

Compound: CCOc1cncc(-c2ccc(CN3CCN(c4ccc(C(=O)NS(C)(=O)=O)cc4)CC3)c(OC)c2)c1 [B2I054-01, 4-[4-[[4-(5-Ethoxypyridin-3-yl)-2-methoxyphenyl]methyl]piperazin-1-yl]-N-methylsulfonylbenzamide]
- ASMS ratio (%) (n = 1): 0.0%
- ASMS ratio (%) (n = 2): 0.0%

Compound: CCOc1cccc(-c2cc(CN3CCN(c4ccc(C(=O)NS(C)(=O)=O)cc4)CC3)cc(OCC)c2)c1 [B2I055-01, 4-[4-[[3-Ethoxy-5-(3-ethoxyphenyl)phenyl]methyl]piperazin-1-yl]-N-methylsulfonylbenzamide]
- ASMS ratio (%) (n = 1): 0.0%
- ASMS ratio (%) (n = 2): 0.0%

Compound: CCOc1cncc(-c2cc(CN3CCN(c4ccc(C(=O)NS(C)(=O)=O)cc4)CC3)cc(OCC)c2)c1 [B2I056-01]
- ASMS ratio (%) (n = 1): 0.0%
- ASMS ratio (%) (n = 2): 0.0%

Compound: CCOc1cccc(-c2cc(CN3CCN(c4ccc(C(=O)NS(C)(=O)=O)cc4)CC3)cc(OC(C)C)c2)c1 [B2I057-01, 4-[4-[[3-(3-Ethoxyphenyl)-5-propan-2-yloxyphenyl]methyl]piperazin-1-yl]-N-methylsulfonylbenzamide]
- ASMS ratio (%) (n = 1): 0.0%
- ASMS ratio (%) (n = 2): 0.0%

Compound: CCOc1cncc(-c2cc(CN3CCN(c4ccc(C(=O)NS(C)(=O)=O)cc4)CC3)cc(OC(C)C)c2)c1 [B2I058-01, 4-[4-[[3-(5-Ethoxypyridin-3-yl)-5-propan-2-yloxyphenyl]methyl]piperazin-1-yl]-N-methylsulfonylbenzamide]
- ASMS ratio (%) (n = 1): 0.0%
- ASMS ratio (%) (n = 2): 0.0%

Compound: CCOc1cccc(-c2cc(OC)c(CN3CCN(c4ccc(C(=O)NS(C)(=O)=O)cc4)CC3)c(OC)c2)c1 [B2I059-01]
- ASMS ratio (%) (n = 1): 0.0%
- ASMS ratio (%) (n = 2): 0.0%

Compound: CCOc1cncc(-c2cc(OC)c(CN3CCN(c4ccc(C(=O)NS(C)(=O)=O)cc4)CC3)c(OC)c2)c1 [B2I060-01]
- ASMS ratio (%) (n = 1): 0.0%
- ASMS ratio (%) (n = 2): 0.0%

Compound: CCOc1cccc(-c2cc(CN3CCN(c4ccc(C(=O)NS(C)(=O)=O)cc4)CC3)cc(C(F)(F)F)c2)c1 [B2I061-01, 4-[4-[[3-(3-Ethoxyphenyl)-5-(trifluoromethyl)phenyl]methyl]piperazin-1-yl]-N-methylsulfonylbenzamide]
- ASMS ratio (%) (n = 1): −0.8%
- ASMS ratio (%) (n = 2): 0.5%

Compound: CCOc1cncc(-c2cc(CN3CCN(c4ccc(C(=O)NS(C)(=O)=O)cc4)CC3)cc(C(F)(F)F)c2)c1 [B2I062-01, 4-[4-[[3-(5-Ethoxypyridin-3-yl)-5-(trifluoromethyl)phenyl]methyl]piperazin-1-yl]-N-methylsulfonylbenzamide]
- ASMS ratio (%) (n = 1): 0.0%
- ASMS ratio (%) (n = 2): 0.0%
